In article PMC8802628, “Selective activation of PFKL suppresses the phagocytic oxidative burst” (Cell, 2021):

Experiments:
[1] = target: T1, GSDMD (Homo sapiens, UniProt P57764); assay: LPS-induced cleavage of GSDMD in monocytes (western blot); assay type: cell-based; parameters: endogenous in cells; host or cells: primary human monocytes electroporated with LPS; settings: monocytes electroporated with LPS
T1 sequence (P57764 1-484): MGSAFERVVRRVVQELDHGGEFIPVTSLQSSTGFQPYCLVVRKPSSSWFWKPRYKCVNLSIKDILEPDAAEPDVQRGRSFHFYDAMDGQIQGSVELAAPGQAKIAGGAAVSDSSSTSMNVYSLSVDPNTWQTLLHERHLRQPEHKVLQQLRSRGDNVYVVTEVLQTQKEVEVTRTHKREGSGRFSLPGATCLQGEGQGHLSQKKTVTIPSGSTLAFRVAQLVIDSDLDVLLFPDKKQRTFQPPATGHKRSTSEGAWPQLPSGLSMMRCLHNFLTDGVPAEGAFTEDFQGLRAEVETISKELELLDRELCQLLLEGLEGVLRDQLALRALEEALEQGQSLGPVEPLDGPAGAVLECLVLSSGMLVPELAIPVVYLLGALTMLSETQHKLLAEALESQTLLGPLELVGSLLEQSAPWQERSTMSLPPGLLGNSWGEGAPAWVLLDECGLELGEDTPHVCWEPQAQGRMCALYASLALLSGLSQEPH
Method: LDH released into the culture medium was measured 1-3 h post-activation using a CellTox Green Cytotoxicity assay (Promega). IL-1β secretion was measured using a MSD Cytokine Assay, 96-well multi-array Tissue Culture Kit (Meso Scale Discovery). For immunoblotting, monocytes (2 × 10^6) were treated with 10-50 μM LCD7559 or 50 μM VX765 and electroporated with 25 μg/mL LPS using the NEON electroporation system. Cells were lysed after 1 h using lysis buffer (50 mM Tris pH 7.4, 150 mM NaCl, 10% glycerol, 1% NP-40, 1 mM MgCl and 1X Roche cOmplete protease inhibitor cocktail) and protein concentration was determined via BCA protein assay (Peirce). Antibodies for immunoblotting were GSDMD (L60, Cell Signaling Technologies), cleaved GSDMD-Asp275 (E7H9G, Cell Signaling Technologies) and GAPDH (14C10, Cell Signaling Technologies).

[2] = system: PMNs; assay: Phagocytosis of zymosan particles by PMNs; assay type: cell-based, human; settings: neutrophils, zymosan 2 h
Method: Figure S7. NA-11 activates PFKL to prevent the oxidative burst and impair neutrophil defenses, related to Figures 4 and 6
(A) PFK1 activity in PMN lysates. Cells were pretreated with 0.5 mM NA-11, 5 mM LDC7559, 100 mM apocynin, 200 mM thionicotinamid e (TN), 1 mM MEK inhibitor U0126, or DMSO vehicle for 30 min, or 1 mM proteasome inhibitor bortezomib for 1 h, and then activated with 50 nM PMA for 30 min where indicated. Bars represent the mean ± s.d. of cells from 3 donors. (B) NADH:NAD+ ratio in PMA-activated PMNs. Cells were pretreated with 0.5 mM NA-11 or DMSO vehicle for 30 min, and then activated with 50 nM PMA for 30 min. Data are the mean ± s.d. of cells from 3 donors. (C) Immunolabeling of citrullinated histone H3 (magenta) and myeloperoxidase (red) in PMNs pretreated with 0.5 mM NA-11 or DMSO vehicle for 30 min and then stimulated for 4 h with 50 nM PMA, 10 mg/mL extracellular LPS, 0.5 mg/mL cholesterol crystals, or 25 mM nigericin. Chromatin is stained green. Scale bar, […]. Results are representative of 3 independent experiments.
(D) Fluorescence micrographs of PMNs pretreated with 0.5 mM NA-11, 200 mM thionicotinamide (TN), 0.5 mM NA-4, or DMSO vehicle for 30 min, and then incubated with serum-opsonized Texas Red-conjugated zymosan particles (10 mg/mL) for 2 h. […]

[3] = system: PMNs; assay: NADPH/NADP+ detection assay in neutrophils; assay type: cell-based, human
Method: The ratio of NADPH/NADP^+ (or NADH/NAD^+) was calculated after measuring the individual concentrations of NADPH and NADP^+ (or NADH and NAD^+) with NADP/NADPH-Glo (or NAD/NADH-Glo) assays (Promega). […] Cells were lysed in plates by addition of 1% dodecyltrimethylammonium bromide (DTAB). To measure NADPH, half of the samples was heated at 60 °C for 30 min. The other half was treated with HCl before heating to 60°C, to measure NADP^+. All samples were neutralized before adding luciferase detection reagent, then incubated for 1 h with gentle shaking. Luminescence was recorded on a plate reader (Envision).

Question: For `COc1ccccc1-c1cc2n(n1)Cc1ccc(NC(C)=O)cc1OC2` [LDC7559, reference compound], which “LPS-induced cleavage of GSDMD” value [1] is on record?
Answer: did not prevent LPS-induced cleavage of GSDMD

Question: For `CC(=O)Nc1ccc2c(c1)OCc1cc(-c3ccccc3C#CCCCO)nn1C2` [NA-11], which “phagocytosis (intracellular zymosan particles)” value [2] is on record?
Answer: neither NA-11 nor TN affected phagocytosis

Question: What about the “NADPH replenishment / turnover after apocynin” value ([3]; PMA 30 min, then apocynin) of the same molecule?
Answer: slower to replenish NADPH

Question: What about the “NADPH/NADP+ ratio in resting cells” value ([3]; resting neutrophils) of the same molecule?
Answer: did not change the NADPH/NADP^+ ratio
